Assay results taken from patent US10913742B2, “Oxadiazolones as transient receptor potential channel inhibitors” (Genentech, Inc., priority 2017, dated 2021).

Molecular target: human TRPA1 (Homo sapiens (Human), UniProt O75762)
Test: hTRPA1 CHO Ca2+ FLIPR assay (block of cinnamaldehyde induced calcium influx)
Type: cell-based
Details: CHO cells expressing TRPA1; 75 uM cinnamaldehyde; Hill coefficient fixed to 1.5; read-out: hTRPA1 (hTRPA1 CHO Ca2+ MAX EVO (IC50))
Procedure: CHO cells expressing TRPA1 were plated into 384-well plates, incubated overnight at 37° C., and loaded with BD calcium indicator dye for 1 hr at 37° C. followed by 15 minutes at room temperature. The assay buffer was Hank's Balanced Salt Solution (HBSS) containing 20 mM HEPES (pH readjusted to 7.4) along with 0.02% BSA.
Following dye load and plate cool down, compounds were added to the cells using FLIPR Tetra. Plates were then incubated with compounds for 20 minutes at room temperature prior to adding agonist.
The IC50 results were fit with a standard Hill function, keeping the Hill coefficient (n) fixed to 1.5. Fixing the Hill coefficient will generally reduce variability of the IC50 determination. The IC50 results were individually examined to make sure the MIN and MAX points were set correctly prior to validation of the results.

human TRPA1, sequence (O75762 whole entry): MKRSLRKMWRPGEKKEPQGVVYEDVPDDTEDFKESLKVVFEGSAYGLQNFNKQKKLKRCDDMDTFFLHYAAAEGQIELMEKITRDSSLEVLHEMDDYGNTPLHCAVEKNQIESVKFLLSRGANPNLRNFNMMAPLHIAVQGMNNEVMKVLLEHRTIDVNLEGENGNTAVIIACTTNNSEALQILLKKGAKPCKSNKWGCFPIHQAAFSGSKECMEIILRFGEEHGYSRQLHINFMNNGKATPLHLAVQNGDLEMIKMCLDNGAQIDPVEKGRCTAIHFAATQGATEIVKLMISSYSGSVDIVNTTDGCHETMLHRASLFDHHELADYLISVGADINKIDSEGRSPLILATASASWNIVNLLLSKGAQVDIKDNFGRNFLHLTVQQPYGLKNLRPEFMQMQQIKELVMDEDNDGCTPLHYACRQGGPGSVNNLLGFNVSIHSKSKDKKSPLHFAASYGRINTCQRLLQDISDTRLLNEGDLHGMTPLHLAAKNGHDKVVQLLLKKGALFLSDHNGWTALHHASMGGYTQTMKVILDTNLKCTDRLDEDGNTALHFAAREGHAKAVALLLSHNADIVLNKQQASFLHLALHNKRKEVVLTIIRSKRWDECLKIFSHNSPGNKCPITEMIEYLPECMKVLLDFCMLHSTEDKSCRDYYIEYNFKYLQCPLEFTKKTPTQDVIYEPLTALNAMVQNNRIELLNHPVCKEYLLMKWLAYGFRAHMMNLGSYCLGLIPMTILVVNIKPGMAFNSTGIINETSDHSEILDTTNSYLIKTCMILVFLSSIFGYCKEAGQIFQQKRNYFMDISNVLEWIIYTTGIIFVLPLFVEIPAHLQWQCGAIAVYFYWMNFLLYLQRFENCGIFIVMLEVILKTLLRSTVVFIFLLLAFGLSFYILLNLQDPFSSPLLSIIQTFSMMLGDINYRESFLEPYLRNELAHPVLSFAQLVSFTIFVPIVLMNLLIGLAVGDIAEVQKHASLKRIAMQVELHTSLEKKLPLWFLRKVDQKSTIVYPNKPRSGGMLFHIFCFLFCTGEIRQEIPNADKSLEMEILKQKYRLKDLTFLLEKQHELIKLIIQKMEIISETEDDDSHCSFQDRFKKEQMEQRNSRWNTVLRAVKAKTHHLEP

IC50 [nM] | Structure (SMILES)
164 | CN(C)c1ccc(CCn2nc(Cn3cnc4ncn(C)c4c3=O)oc2=O)cc1 [compound 17, 3-(4-(dimethylamino)phenethyl)-5-((7-methyl-6-oxo-6H-purin-1(7H)-yl)methyl)-1,3,4-oxadiazol-2(3H)-one]
509 | Cn1cnc2ncn(Cc3nn(CCc4ccc(C(F)F)cc4)c(=O)o3)c(=O)c21 [compound 18, 3-(4-(difluoromethyl)phenethyl)-5-((7-methyl-6-oxo-6H-purin-1(7H)-yl)methyl)-1,3,4-oxadiazol-2(3H)-one]
34 | C[C@H](Cn1nc(Cn2cnc3ncn(C)c3c2=O)oc1=O)c1ccc(Cl)cc1 [compound 19, (S)-3-(2-(4-chlorophenyl)propyl)-5-((7-methyl-6-oxo-6H-purin-1(7H)-yl)methyl)-1,3,4-oxadiazol-2(3H)-one]
812 | C[C@@H](Cn1nc(Cn2cnc3ncn(C)c3c2=O)oc1=O)c1ccc(Cl)cc1 [compound 20, (R)-3-(2-(4-chlorophenyl)propyl)-5-((7-methyl-6-oxo-6H-purin-1(7H)-yl)methyl)-1,3,4-oxadiazol-2(3H)-one]
286 | Cn1cnc2ncn(Cc3nn(CCc4ccc(Cl)s4)c(=O)o3)c(=O)c21 [compound 21, 3-(2-(5-chlorothiophen-2-yl)ethyl)-5-((7-methyl-6-oxo-6H-purin-1(7H)-yl)methyl)-1,3,4-oxadiazol-2(3H)-one]
14 | Cn1cnc2c(C#N)nn(Cc3nn(CCc4ccc(Cl)cc4)c(=O)o3)c2c1=O [compound 22, 1-([4-[2-(4-chlorophenyl)ethyl]-5-oxo-4,5-dihydro-1,3,4-oxadiazol-2-yl]methyl)-6-methyl-7-oxo-1H,6H,7H-pyrazolo[4,3-d]pyrimidine-3-carbonitrile]
338 | Cn1cnc2ncn(Cc3nn(CCc4cccc(-c5ccccc5)c4)c(=O)o3)c(=O)c21 [compound 24, 7-methyl-1-([5-oxo-4-[2-(3-phenylphenyl)ethyl]-4,5-dihydro-1,3,4-oxadiazol-2-yl]methyl)-6,7-dihydro-1H-purin-6-one]
132 | Cn1cnc2ncn(Cc3nn(CCc4ccc(Br)c(Cl)c4)c(=O)o3)c(=O)c21 [compound 25, 1-([4-[2-(4-bromo-3-chlorophenyl)ethyl]-5-oxo-4,5-dihydro-1,3,4-oxadiazol-2-yl]methyl)-7-methyl-6,7-dihydro-1H-purin-6-one]
737 | Cn1cnc2ncn(Cc3nn(CCc4ccc(Cl)cc4)c(=O)o3)c2c1=O [compound 26, 7-([4-[2-(4-chlorophenyl)ethyl]-5-oxo-4,5-dihydro-1,3,4-oxadiazol-2-yl]methyl)-1-methyl-6,7-dihydro-1H-purin-6-one]
49 | Cc1cnnc2ncn(Cc3nn(CCc4ccc(Cl)cc4)c(=O)o3)c(=O)c12 [compound 27, 3-(4-chlorophenethyl)-5-((4-methyl-5-oxopyridazino[3,4-d]pyrimidin-6(5H)-yl)methyl)-1,3,4-oxadiazol-2(3H)-one]
9 | Cc1cc(C#N)nc2ncn(Cc3nn(CCc4ccc(Cl)cc4)c(=O)o3)c(=O)c12 [compound 28, 3-((4-(4-chlorophenethyl)-5-oxo-4,5-dihydro-1,3,4-oxadiazol-2-yl)methyl)-5-methyl-4-oxo-3,4-dihydropyrido[2,3-d]pyrimidine-7-carbonitrile]
87 | Cn1ccc2cc(CCn3nc(Cn4cnc5ncn(C)c5c4=O)oc3=O)ccc21 [compound 29, 3-[2-(1-methylindol-5-yl)ethyl]-5-[(7-methyl-6-oxo-purin-1-yl)methyl]-1,3,4-oxadiazol-2-one]
26.6 | Cn1cnc2c(C#N)nn(Cc3nc(CCc4ccc(Cl)cc4)no3)c2c1=O [compound 30, 1-[[3-[2-(4-chlorophenyl)ethyl]-1,2,4-oxadiazol-5-yl]methyl]-6-methyl-7-oxo-pyrazolo[4,3-d]pyrimidine-3-carbonitrile]
126 | Cc1ccc(CCn2nc(Cn3cnc4ncn(C)c4c3=O)oc2=O)cc1 [compound 31, 5-[(7-methyl-6-oxo-purin-1-yl)methyl]-3-[2-(p-tolyl)ethyl]-1,3,4-oxadiazol-2-one]
36 | Cn1cnc2c(C#N)nn(Cc3nn(CCc4ccc(OC(F)F)cc4)c(=O)o3)c2c1=O [compound 32, 1-[(4-[2-[4-(difluoromethoxy)phenyl]ethyl]-5-oxo-4,5-dihydro-1,3,4-oxadiazol-2-yl)methyl]-6-methyl-7-oxo-1H,6H,7H-pyrazolo[4,3-d]pyrimidine-3-carbonitrile]
96 | Cn1cnc2cnn(Cc3nn(CCc4ccc(Cl)cc4)c(=O)o3)c(=O)c21 [compound 35, 3-[2-(4-chlorophenyl)ethyl]-5-[(3-methyl-4-oxo-imidazo[4,5-d]pyridazin-5-yl)methyl]-1,3,4-oxadiazol-2-one]
120 | Cn1cnc2ncn(Cc3nn(CCc4ccc5ccc(C#N)cc5c4)c(=O)o3)c(=O)c21 [compound 36, 7-[2-[5-[(7-methyl-6-oxo-purin-1-yl)methyl]-2-oxo-1,3,4-oxadiazol-3-yl]ethyl]naphthalene-2-carbonitrile]

IC50 [nM] | Structure (SMILES)
332 | Cn1cnc2ncn(Cc3nn(C[C@@H](F)c4ccc5ccccc5c4)c(=O)o3)c(=O)c21 [compound 37, 5-[(7-methyl-6-oxo-purin-1-yl)methyl]-3-[(2S)-2-fluoro-2-(2-naphthyl)ethyl]-1,3,4-oxadiazol-2-one]
113 | Cc1cc(CCn2nc(Cn3cnc4ncn(C)c4c3=O)oc2=O)ccc1Cl [compound 39, 3-(4-chloro-3-methylphenethyl)-5-((7-methyl-6-oxo-6H-purin-1(7H)-yl)methyl)-1,3,4-oxadiazol-2(3H)-one]
18 | Cc1cnc(Cl)c2ncn(Cc3nn(CCc4ccc(Cl)cc4)c(=O)o3)c(=O)c12 [compound 40, 5-((8-chloro-5-methyl-4-oxopyrido[3,4-d]pyrimidin-3(4H)-yl)methyl)-3-(4-chlorophenethyl)-1,3,4-oxadiazol-2(3H)-one]
492 | Cn1cnc2ncn(Cc3nn(CCc4ccc(Cl)cc4F)c(=O)o3)c(=O)c21 [compound 41, 3-(4-chloro-2-fluorophenethyl)-5-((7-methyl-6-oxo-6H-purin-1(7H)-yl)methyl)-1,3,4-oxadiazol-2(3H)-one]
98 | Cn1cnc2ncn(Cc3nn(CCc4ccc(Cl)c(-c5ccccc5)c4)c(=O)o3)c(=O)c21 [compound 42, 3-(2-(6-chlorobiphenyl-3-yl)ethyl)-5-((7-methyl-6-oxo-6H-purin-1(7H)-yl)methyl)-1,3,4-oxadiazol-2(3H)-one]
18 | Cc1cnc(C#N)c2ncn(Cc3nn(CCc4ccc(Cl)cc4)c(=O)o3)c(=O)c12 [compound 43]
10 | Cn1cnc2ncn(Cc3nn(C[C@H](F)c4ccc(Br)cc4)c(=O)o3)c(=O)c21 [compound 44, (R)-3-(2-(4-bromophenyl)-2-fluoroethyl)-5-((7-methyl-6-oxo-6H-purin-1(7H)-yl)methyl)-1,3,4-oxadiazol-2(3H)-one]
1200 | Cn1cnc2ncn(Cc3nn(C[C@@H](F)c4ccc(Br)cc4)c(=O)o3)c(=O)c21 [compound 45, (S)-3-(2-(4-bromophenyl)-2-fluoroethyl)-5-((7-methyl-6-oxo-6H-purin-1(7H)-yl)methyl)-1,3,4-oxadiazol-2(3H)-one]
107 | Cc1ncnc2ncn(Cc3nn(CCc4ccc(Cl)cc4)c(=O)o3)c(=O)c12 [compound 46, 3-(4-chlorophenethyl)-5-((5-methyl-4-oxopyrimido[4,5-d]pyrimidin-3(4H)-yl)methyl)-1,3,4-oxadiazol-2(3H)-one]
65 | Cc1csc2ncc(Cc3nn(CCc4ccc(Cl)cc4)c(=O)o3)c(=O)n12 [compound 47, 3-(4-chlorophenethyl)-5-((3-methyl-5-oxo-5H-thiazolo[3,2-a]pyrimidin-6-yl)methyl)-1,3,4-oxadiazol-2(3H)-one]
196 | Cn1cnc2ncn(Cc3nn(C[C@@H]4CCc5ccc(Cl)cc54)c(=O)o3)c(=O)c21 [compound 48]
61 | Cn1cnc2ncn(Cc3nn(C[C@@H]4CCc5cc(Cl)ccc54)c(=O)o3)c(=O)c21 [compound 49, (R)-3-((5-chloro-2,3-dihydro-1H-inden-1-yl)methyl)-5-((7-methyl-6-oxo-6,7-dihydro-1H-purin-1-yl)methyl)-1,3,4-oxadiazol-2(3H)-one]
168 | Cn1cnc2ncn(Cc3nn([C@H]4C[C@H](c5ccccc5)C4)c(=O)o3)c(=O)c21 [compound 51, 5-[(7-methyl-6-oxo-purin-1-yl)methyl]-3-(3-phenylcyclobutyl)-1,3,4-oxadiazol-2-one]
20 | Cn1cnc2ncn(Cc3nn([C@H]4C[C@H](c5ccc(Br)cc5)C4)c(=O)o3)c(=O)c21 [compound 52, 3-[3-(4-bromophenyl)cyclobutyl]-5-[(7-methyl-6-oxo-purin-1-yl)methyl]-1,3,4-oxadiazol-2-one]
44 | Cn1cnc2ncn(Cc3nn([C@H]4C[C@H](c5cccc(Cl)c5)C4)c(=O)o3)c(=O)c21 [compound 53, 3-[3-(3-chlorophenyl)cyclobutyl]-5-[(7-methyl-6-oxo-purin-1-yl)methyl]-1,3,4-oxadiazol-2-one]
105 | COc1ccc([C@H]2C[C@H](n3nc(Cn4cnc5ncn(C)c5c4=O)oc3=O)C2)cc1 [compound 54, 3-(3-(4-methoxyphenyl)cyclobutyl)-5-((7-methyl-6-oxo-6,7-dihydro-1H-purin-1-yl)methyl)-1,3,4-oxadiazol-2(3H)-one]
251 | Cn1cnc2ncn(Cc3nn(CCc4ccc(-c5ccccc5)cc4)c(=O)o3)c(=O)c21 [compound 55, 5-[(7-methyl-6-oxo-purin-1-yl)methyl]-3-[2-(4-phenylphenyl)ethyl]-1,3,4-oxadiazol-2-one]
